Structures can show the parent of a compound that is named as a salt. Where two headings read alike, the source gives them in different places. Non-standard residues stand in square brackets, D forms with d. Residues, ends and D or L forms follow the SMILES beside them. dTrp(2-Me) = Cc1[nH]c2ccccc2c1C[C@@H](N)C(=O)O; αMeP = C[C@@]1(C(=O)O)CCCN1
System: BDNF-induced nuclear Arc expression in primary cortical neurons
Test: Chemogenomic screen: high-content image-based assay of BDNF-induced nuclear Arc expression (96-well)
Format: cell-based, mouse
Protocol: To increase the throughput of our pharmacological screening for modulators of Arc, the above mentioned assay was adapted to cultures of mouse primary cortical neurons in 96-well plates.
All 319 compounds were initially tested at a final concentration of 16.7 µM with three biological replicates.
Screening of compounds in the chemogenomic library was carried out using DIV13 primary forebrain cortical neurons cultured on poly-L-lysine/laminin-coated 96-well plates (Ibidi USA, Madison, WI). Cells were seeded at a density of 30,000 cells per well and treated with the compound library and BDNF according to the experimental design presented in Fig. 3a. After experimental treatment, cells were processed for Arc and acetyl-H3K9 immunocytochemistry according to the protocol described above. Both antigens (Arc and acetyl-H3K9) were imaged using an IN Cell Analyzer 6000 imaging system and a ×40 objective. […] High-throughput quantification of nuclear Arc immunofluorescence signal was performed in a similar fashion than the low-throughput procedure described above but with the exception that acetyl-H3K9 was used as a nuclear mask to guide the automated quantification of nuclear Arc immunofluorescence signal.

[1] = BDNF-induced nuclear Arc expression, primary cortical neurons, chemogenomic screen
[2] = chemogenomic (SMART) screen, BDNF-induced nuclear Arc expression, primary cortical neurons, BDNF control 19.5
[3] = nuclear Arc-positive cells relative to DMSO + BDNF control, negative values = decrease
[4] = nuclear Arc-positive cells relative to DMSO control (BDNF), negative = decrease

Row | Compound | Percentage of cell with nuclear Arc immunostaining above 2σ threshold [2] [%] | Fold-change — Normalized to DMSO control (BDNF) [3] [fold] | further results
1 | CCNC(=O)CC[C@H](N)C(=O)O [Theanine] |  |  | Percentage of cell with nuclear Arc immunostaining above 2σ threshold [1]: 9.1%
2 | CN[C@@H]1Cc2cccc3[nH]c(=O)n(c23)C1 [Sumanirole] | 40.3 | 2.1 | 
3 | O=C1CC2(CCCC2)CC(=O)N1CCCCN1CCN(c2ncccn2)CC1 [Buspirone] |  |  | Percentage of cell with nuclear Arc immunostaining above 2σ threshold [1]: 10.3%
4 | Cc1cc(-c2ccccc2)nnc1NCCN1CCOCC1 [Minaprine] | 21.8 | 1.1 | 
5 | Nc1ccn([C@@H]2O[C@H](CO)[C@@H](O)[C@H]2O)c(=O)n1 [Cytidine] | 34.8 | 1.8 | 
6 | O=C1NCCN1CCN1CCC(c2cn(-c3ccc(F)cc3)c3ccc(Cl)cc23)CC1 [Sertindole] |  |  | Percentage of cell with nuclear Arc immunostaining above 2σ threshold [1]: 0.18%
7 | COc1cc(C(C)=O)ccc1OCCCN1CCC(c2noc3cc(F)ccc23)CC1 [Iloperidone] |  |  | Percentage of cell with nuclear Arc immunostaining above 2σ threshold [1]: 8.3%
8 | O=C(CCCN1CCC(n2c(O)nc3ccccc32)CC1)c1ccc(F)cc1 [Benperidol] | 18.9 |  | 
9 | O=C(O)[C@H]1O[C@@H](Oc2cc3oc(-c4ccccc4)cc(=O)c3c(O)c2O)[C@H](O)[C@@H](O)[C@@H]1O [Baicalin] | 34.6 | 1.8 | 
10 | O=c1[nH]c2ccccc2n1CCCN1CCC(n2c(=O)[nH]c3cc(Cl)ccc32)CC1 [Domperidone] | 15.3 |  | 
11 | Clc1ccc2nsnc2c1NC1=NCCN1 [Tizanidine] | 35.8 | 1.8 | 
12 | CCN[C@H]1C[C@H](C)S(=O)(=O)c2sc(S(N)(=O)=O)cc21 [Dorzolamide] |  |  | Percentage of cell with nuclear Arc immunostaining above 2σ threshold [1]: 7.1%
13 | CNCC(O)c1ccc(O)cc1 (stereo not drawn) [Synephrine] | 27.8 | 1.4 | 
14 | CCOC(=O)C1=C[C@]2(CC)CCCN3CCc4c(n1c1ccccc41)[C@@H]32 [Vinpocetine] | 12.5 |  | 
15 | CCN[C@H]1CN(CCCOC)S(=O)(=O)c2sc(S(N)(=O)=O)cc21 [Brinzolamide] | 28.3 | 1.5 | 
16 | Cc1ccc2c(c1)c1c(n2CCc2ccc(C)nc2)CCN(C)C1 [Latrepirdine] | 34.3 | 1.8 | 
17 | CC(CN(C)C)CN1c2ccccc2CCc2ccccc21 (stereo not drawn) [Trimipramine maleate] | 21.9 | 1.1 | 
18 | Cc1[nH]c2ccccc2c1C[C@@H](NC(=O)[C@@H](N)Cc1cnc[nH]1)C(=O)N[C@@H](C)C(=O)N[C@@H](Cc1c[nH]c2ccccc12)C(=O)N[C@H](Cc1ccccc1)C(=O)N[C@@H](CCCCN)C(N)=O [Hexarelin] (H-H[dTrp(2-Me)]AW[dF]K-NH2) | 17.9 | -1.1 | 
19 | NCC(CC(=O)O)c1ccc(Cl)cc1 (stereo not drawn) [Baclofen] | 28.6 | 1.5 | 
20 | CC[C@H](C)[C@H](NC(=O)[C@H](CO)NC(=O)[C@@H](NC(=O)[C@@H]1CCCN1C(=O)[C@H](C)NC(=O)[C@@H](N)CC(N)=O)C(C)C)C(=O)N1CCC[C@H]1C(=O)N[C@@H](CCC(N)=O)C(=O)O [AL-108] |  |  | Percentage of cell with nuclear Arc immunostaining above 2σ threshold [1]: 8.6%; Fold-change — Normalized to DMSO control (BDNF) [4]: -2.3 fold
21 | CCN1CCCC1CNC(=O)c1cc(S(=O)(=O)CC)c(N)cc1OC (stereo not drawn) [Amisulpride] | 24.6 | 1.3 | 
22 | CN1[C@@H]2CC[C@H]1C[C@@H](OC(=O)c1c[nH]c3ccccc13)C2 [Tropisetron] | 28.5 | 1.5 | 
23 | CNCCCN1c2ccccc2CCc2ccccc21 [Desipramine] |  |  | Percentage of cell with nuclear Arc immunostaining above 2σ threshold [1]: 11.3%
24 | O=C(O)C(O)C(O)C(=O)O.c1cnc2cc3c(cc2n1)[C@@H]1CNC[C@H]3C1 [Chantix] |  |  | Percentage of cell with nuclear Arc immunostaining above 2σ threshold [1]: 10.1%; Fold-change — Normalized to DMSO control (BDNF) [4]: -1.9 fold
25 | CCc1ccc(CCOc2ccc(CC3SC(=O)NC3=O)cc2)nc1 (stereo not drawn) [Pioglitazone] | 15.4 |  | 
26 | C[N+](C)(C)C[C@H](O)CC(=O)[O-] [Levocarnitine] |  |  | Percentage of cell with nuclear Arc immunostaining above 2σ threshold [1]: 10.1%
27 | CCN(CC)CCNC(=O)c1cc(S(C)(=O)=O)ccc1OC [Tiapride hydrochloride] | 20.9 | 1.1 | 

Row | Compound | Percentage of cell with nuclear Arc immunostaining above 2σ threshold [2] [%] | Fold-change — Normalized to DMSO control (BDNF) [3] [fold] | further results
28 | CCN(CC)C(=O)/C(C#N)=C/c1cc(O)c(O)c([N+](=O)[O-])c1 [Entacapone] | 27.9 | 1.4 | 
29 | COc1ccc(C(=O)NCc2ccc(OCCN(C)C)cc2)cc1OC.Cl [Itopride hydrochloride] |  | 1.2 | Percentage of cell with nuclear Arc immunostaining above 2σ threshold: 23.8%
30 | Nc1c2c(nc3ccccc13)CCCC2O (stereo not drawn) [Hydroxytacrine] | 36.9 | 1.9 | 
31 | CCCC(CCC)C(N)=O [Valpromide] | 19.8 | 1.0 | 
32 | Oc1ccc(/C=C/c2cc(O)cc(O)c2)cc1 [Resveratrol] | 36.0 | 1.8 | 
33 | CN1CC2c3ccccc3Oc3ccc(Cl)cc3C2C1 (stereo not drawn) [Asenapine] |  |  | Percentage of cell with nuclear Arc immunostaining above 2σ threshold [1]: 11.2%
34 | COc1cccc(C2(O)CCCCC2CN(C)C)c1 (stereo not drawn) [Tramadol] |  |  | Percentage of cell with nuclear Arc immunostaining above 2σ threshold: 7.5%
35 | CN(C)CCc1c[nH]c2ccc(C[C@H]3COC(=O)N3)cc12 [Zolmitriptan] | 42.5 | 2.2 | 
36 | CC(C)n1c(=O)n(C(=O)NC2CC3CCC(C2)N3C)c2ccccc21 (stereo not drawn) [BIMU-8] |  | -1.2 | Percentage of cell with nuclear Arc immunostaining above 2σ threshold: 16.3%
37 | O=C(O)c1cc2cc(O)c(O)cc2c(C(=O)c2ccc(O)c(O)c2)n1 [NBI-31772] |  |  | Percentage of cell with nuclear Arc immunostaining above 2σ threshold: 2.7%; Fold-change — Normalized to DMSO control (BDNF) [4]: -7.3 fold
38 | C[C@H](NC[C@H](O)CP(=O)(O)Cc1ccccc1)c1ccc(Cl)c(Cl)c1 [CGP 55845] |  | 1.3 | Percentage of cell with nuclear Arc immunostaining above 2σ threshold: 24.6%
39 | Nc1cccc(-c2cc3c(Oc4cccc(O)c4)ncnc3[nH]2)c1 [TWS119] | 33.9 | 1.7 | 
40 | CC1=NN=C(c2ccc(N)cc2)c2cc3c(cc2C1)OCO3 [GYKI-52466] | 12.0 |  | 
41 | CNC(=O)[C@@H](Cc1ccccc1)N(C)C(=O)[C@@H](Cc1ccc2ccccc2c1)N(C)C(=O)/C=C/CC(C)(C)N [Tabimorelin] |  |  | Percentage of cell with nuclear Arc immunostaining above 2σ threshold [1]: 7.1%
42 | COC1=CC(=O)O[C@@H](/C=C/c2ccccc2)C1 [Kavain] |  | 1.8 | Percentage of cell with nuclear Arc immunostaining above 2σ threshold: 34.3%
43 | COC1=CC(=O)O[C@@H](/C=C/c2ccc3c(c2)OCO3)C1 [Kavahin] |  | 1.9 | Percentage of cell with nuclear Arc immunostaining above 2σ threshold: 36.5%
44 | O=C([O-])CCCNC(=O)c1cccnc1.[Na+] [Picamilon sodium salt] | 29.2 | 1.5 | 
45 | CC(=O)NCCCS(=O)(=O)O [Acamprosate] |  |  | Percentage of cell with nuclear Arc immunostaining above 2σ threshold: 9.4%
46 | C[S+]([O-])CCCCN=C=S (stereo not drawn) [Sulforaphane] | 18.2 |  | 
47 | CN(CCOc1ccc(CC2SC(=O)NC2=O)cc1)c1ccccn1 (stereo not drawn) [Rosiglitazone] | 29.8 | 1.5 | 
48 | CCCN[C@H]1CCc2nc(N)sc2C1 [Pramipexole] | 14.5 |  | 
49 | CN(C)CCOC(=O)COc1ccc(Cl)cc1.Cl [Meclofenoxate hydrochloride] |  | 1.4 | Percentage of cell with nuclear Arc immunostaining above 2σ threshold: 28.2%
50 | CN(C)CCC=C1c2ccccc2COc2ccccc21 [Doxepin] |  |  | Percentage of cell with nuclear Arc immunostaining above 2σ threshold [1]: 10.2%
51 | CC[N+](CC)(CCNC(=O)C(=O)NCC[N+](CC)(CC)Cc1ccccc1Cl)Cc1ccccc1Cl [Ambenonium] |  |  | Percentage of cell with nuclear Arc immunostaining above 2σ threshold: 15.1%
52 | OCCCCC#Cc1cncc(OC[C@@H]2CCN2)c1 [Sazetidine A] |  | 1.8 | Percentage of cell with nuclear Arc immunostaining above 2σ threshold: 35.2%
53 | C[C@@]1(C(=O)N[C@@H](CCC(=O)O)C(=O)O)CCCN1C(=O)CN [NNZ-2566] (H-Gly-[αMeP]-Glu-OH) |  |  | Percentage of cell with nuclear Arc immunostaining above 2σ threshold [1]: 6.7%; Fold-change — Normalized to DMSO control (BDNF) [4]: -2.9 fold
54 | CC(C)C[C@H](CN)CC(=O)O [Pregabalin] |  |  | Percentage of cell with nuclear Arc immunostaining above 2σ threshold: 8.5%

Reference: publication PMC5698418 (Nature Communications, 2017)
